Measurements taken from PubChem BioAssay AID2060626 (Molecular Pharmacology Branch, DTP, NCI, 2025).

System: 168753-222-R-J1-PDC complex spheroid viability
Experiment: Anticancer human tumor 168753-222-R-J1-PDC patient-derived bladder carcinoma cell line growth inhibition [CLK]
Conditions: for IC50: curve of first compound; for viability, T/C: stronger effect = lower value
Summary of the method: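 Multi-cell-type spheroids combined patient-derived tumor cells with HUVEC endothelial cells and human mesenchymal stem cells. Paired agents were dosed in half-log steps down from about clinical Cmax, or from 10 microM where Cmax was unknown.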
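Also: viability measured after seven days of drug exposure.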
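For viability, T/C in this document: luminescence signal used as surrogate for viable cell amount; 100% = DMSO vehicle control wells.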

Structure (SMILES): CC(Nc1ccc2c(c1)OCCn1cc(N3C(=O)OCC3C(F)F)nc1-2)C(N)=O (configuration not stated) + CN1CCN(c2cc(C(=O)Nc3cc4cc(-c5cnn(C)c5)ccc4cn3)ccn2)CC1
- IC50 (second compound 0.0316 µM): 0.0657 µM
- IC50 (second compound 0.1 µM): < 0.0316 µM
- IC50 (second compound 0.316 µM): < 0.0316 µM
- IC50 (second compound 1 µM): < 0.0316 µM
- IC50 (second compound 3.16 µM): < 0.0316 µM
- IC50 (second compound 10 µM): < 0.0316 µM
- viability, T/C (second compound 0.0316 µM, first compound 0.0316 µM): 72.8%
- viability, T/C (second compound 0.0316 µM, first compound 0.1 µM): 37%
- viability, T/C (second compound 0.0316 µM, first compound 0.316 µM): 15%
- viability, T/C (second compound 0.0316 µM, first compound 1 µM): 12.5%
- viability, T/C (second compound 0.0316 µM, first compound 3.16 µM): 9.81%
- viability, T/C (second compound 0.0316 µM, first compound 10 µM): 9.9%
- viability, T/C (second compound 0.1 µM, first compound 0.0316 µM): 41.8%
- viability, T/C (second compound 0.1 µM, first compound 0.1 µM): 18.2%
- viability, T/C (second compound 0.1 µM, first compound 0.316 µM): 12.3%
- viability, T/C (second compound 0.1 µM, first compound 1 µM): 8.91%
- viability, T/C (second compound 0.1 µM, first compound 3.16 µM): 7%
- viability, T/C (second compound 0.1 µM, first compound 10 µM): 7.78%
- viability, T/C (second compound 0.316 µM, first compound 0.0316 µM): 15.9%
- viability, T/C (second compound 0.316 µM, first compound 0.1 µM): 10.2%
- viability, T/C (second compound 0.316 µM, first compound 0.316 µM): 7.13%
- viability, T/C (second compound 0.316 µM, first compound 1 µM): 1.63%
- viability, T/C (second compound 0.316 µM, first compound 3.16 µM): 0.95%
- viability, T/C (second compound 0.316 µM, first compound 10 µM): 0.77%
- viability, T/C (second compound 1 µM, first compound 0.0316 µM): 0.37%
- viability, T/C (second compound 1 µM, first compound 0.1 µM): 0.22%
- viability, T/C (second compound 1 µM, first compound 0.316 µM): 0.1%
- viability, T/C (second compound 1 µM, first compound 1 µM): 0.05%
- viability, T/C (second compound 1 µM, first compound 3.16 µM): 0.08%
- viability, T/C (second compound 1 µM, first compound 10 µM): 0.08%
- viability, T/C (second compound 3.16 µM, first compound 0.0316 µM): 0.12%
- viability, T/C (second compound 3.16 µM, first compound 0.1 µM): 0.1%
- viability, T/C (second compound 3.16 µM, first compound 0.316 µM): 0.35%
- viability, T/C (second compound 3.16 µM, first compound 1 µM): 0.06%
- viability, T/C (second compound 3.16 µM, first compound 3.16 µM): 2.39%
- viability, T/C (second compound 3.16 µM, first compound 10 µM): 0.59%
- viability, T/C (second compound 10 µM, first compound 0.0316 µM): 0.05%
- viability, T/C (second compound 10 µM, first compound 0.1 µM): 0.11%
- viability, T/C (second compound 10 µM, first compound 0.316 µM): 1.89%
- viability, T/C (second compound 10 µM, first compound 1 µM): 0.11%
- viability, T/C (second compound 10 µM, first compound 3.16 µM): 0.27%
- viability, T/C (second compound 10 µM, first compound 10 µM): 0.33%
